This is an account of results in patent US20260258064A1 (SIRONAX LTD., priority 2023, published 2026).

pIC50: −log10 of the molar value.

Broadly, the pIC50 is the negative decadic logarithm of the IC50, by convention in mol/L.

The assay has as its target T1, SARM1 (50-724) (Homo sapiens, UniProt Q6SZW1).
T1 construct: Purified SARM1 (50-724) with a final concentration of 2 nM was pre-incubated with a test compound
T1 sequence (Q6SZW1 50-724): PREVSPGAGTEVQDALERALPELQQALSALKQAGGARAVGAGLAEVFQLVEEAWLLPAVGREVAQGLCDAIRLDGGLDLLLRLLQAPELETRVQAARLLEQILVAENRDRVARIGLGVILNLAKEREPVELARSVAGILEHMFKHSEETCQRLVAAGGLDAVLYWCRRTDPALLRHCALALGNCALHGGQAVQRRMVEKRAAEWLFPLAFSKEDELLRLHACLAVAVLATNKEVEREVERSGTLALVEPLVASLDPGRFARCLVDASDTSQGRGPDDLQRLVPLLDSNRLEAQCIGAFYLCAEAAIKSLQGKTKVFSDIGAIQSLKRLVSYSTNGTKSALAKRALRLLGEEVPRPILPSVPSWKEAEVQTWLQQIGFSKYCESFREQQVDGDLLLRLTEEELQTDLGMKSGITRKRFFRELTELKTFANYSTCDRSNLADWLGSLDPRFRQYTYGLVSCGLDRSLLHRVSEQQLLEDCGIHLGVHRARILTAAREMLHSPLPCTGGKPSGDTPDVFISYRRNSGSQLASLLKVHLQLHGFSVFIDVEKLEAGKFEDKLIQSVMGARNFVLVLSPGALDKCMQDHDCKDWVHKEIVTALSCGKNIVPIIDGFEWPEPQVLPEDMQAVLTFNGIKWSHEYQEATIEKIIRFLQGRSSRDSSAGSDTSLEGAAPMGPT
The experiment in a line: SARM1 (50-724) enzymatic assay (LC-MS/MS). The class given is biochemical. The settings on record: Purified SARM1 (50-724) 2 nM, NMN as activator, NAD+ as substrate, 1 h at room temperature, read-out: IC50 (SARM1 inhibitory activity). In outline: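 Human SARM1 (50-724), 2 nM, pre-incubated 15 min at room temperature with compound in Dulbecco's PBS. Reaction started with 200 µM NMN (activator) plus […] NAD^+ substrate, run 1 h at room temperature, quenched with 70% acetonitrile. Turnover quantified by LC-MS/MS; IC50 reported.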
In the case of `Oc1ccc(Cl)c(-n2cnnc2-c2nc3cc(C(F)(F)F)ccc3[nH]2)n1` [Example 115], the pIC50 is no less than 7.00.

In the case of `O=S(=O)(Cc1nnc(-c2nc3cc(Cl)cc(F)c3[nH]2)n1-c1cccc(F)c1Cl)C1CC1` [Compound 194, 5-chloro-2-(4-(2-chloro-3-fluorophenyl)-5-((cyclopropylsulfonyl)methyl)-4H-1,2,4-triazol-3-yl)-7-fluoro-1H-benzo[d]imidazole], the pIC50 is no less than 7.00.

With `N#Cc1cccc(-n2cnnc2-c2nc3cc(C(F)(F)F)ccc3[nH]2)c1Cl` [Compound 159, 2-chloro-3-(3-(5-(trifluoromethyl)-1H-benzo[d]imidazol-2-yl)-4H-1,2,4-triazol-4-yl)benzonitrile], the pIC50 was no less than 7.00.

Take `FC(F)(F)c1ccc2[nH]c(-c3nnc(OC4COC4)n3-c3cccc(Cl)c3Cl)nc2c1` [Example 117, 2-(4-(2,3-dichlorophenyl)-5-(oxetan-3-yloxy)-4H-1,2,4-triazol-3-yl)-5-(trifluoromethyl)-1H-benzo[d]imidazole]: the pIC50 is 6.30 to 7.00.

On to `Cc1ncsc1-n1cnnc1-c1nc2cc(C(F)(F)F)ccc2[nH]1` [Compound 272, 4-methyl-5-(3-(5-(trifluoromethyl)-1H-benzo[d]imidazol-2-yl)-4H-1,2,4-triazol-4-yl)thiazole], for which the negative logarithm of the IC50 (pIC50) was less than 6.00.

Take `O=S1(c2cc(F)c3[nH]c(-c4nncn4-c4cnccc4C(F)(F)F)nc3c2)=NCCC1` (centres unmarked) [Compound 424, 1-[7-fluoro-2-[4-[4-(trifluoromethyl)-3-pyridyl]-1,2,4-triazol-3-yl]-1H-benzimidazol-5-yl]-4,5-dihydro-3H-isothiazole 1-oxide]: the pIC50 is less than 6.00.

Consider `Fc1cc(C2(F)CC2)cc2nc(-c3nncn3-c3cnccc3C(F)(F)F)[nH]c12` [Compound 285, 7-fluoro-5-(1-fluorocyclopropyl)-2-(4-(4-(trifluoromethyl)pyridin-3-yl)-4H-1,2,4-triazol-3-yl)-1H-benzo[d]imidazole], for which the pIC50 is no less than 7.00.

As for `NC(=O)c1nnc(-c2nc3cc(C(F)(F)F)ccc3[nH]2)n1-c1cccc(Cl)c1Cl` [Compound 77], the pIC50 was 6.30 to 7.00.

With `Cc1cnc(-c2cc(F)c3[nH]c(-c4nncn4-c4cnccc4C(F)(F)F)nc3c2)s1` [Compound 409, 2-[7-fluoro-2-[4-[4-(trifluoromethyl)-3-pyridyl]-1,2,4-triazol-3-yl]-1H-benzimidazol-5-yl]-5-methyl-thiazole], the pIC50 was no less than 7.00.

With `Fc1cc(C2CC23CC3)cc2nc(-c3nncn3-c3cnccc3C(F)(F)F)[nH]c12` (centres unmarked) [Compound 338, 7-fluoro-5-spiro[2.2]pentan-2-yl-2-[4-[4-(trifluoromethyl)-3-pyridyl]-1,2,4-triazol-3-yl]-1H-benzimidazole], the pIC50 was no less than 7.00.

On to `O=C(O)c1cc(-n2cnnc2-c2nc3cc(C(F)(F)F)ccc3[nH]2)c(OC(F)(F)F)cn1` [Compound 266, 5-(trifluoromethoxy)-4-(3-(5-(trifluoromethyl)-1H-benzo[d]imidazol-2-yl)-4H-1,2,4-triazol-4-yl)picolinic acid], for which the pIC50 was no less than 7.00.

With `CC(C)(O)c1ccc2[nH]c(-c3nncn3-c3cccc(Cl)c3Cl)nc2c1` [Example 96, 2-(2-(4-(2,3-dichlorophenyl)-4H-1,2,4-triazol-3-yl)-1H-benzo[d]imidazol-5-yl)propan-2-ol], the pIC50 was no less than 7.00.

With `NC(=O)COc1ccc(OC(F)(F)F)c(-n2cnnc2-c2nc3cc(C(F)(F)F)ccc3[nH]2)c1` [Compound 249, 2-(4-(trifluoromethoxy)-3-(3-(5-(trifluoromethyl)-1H-benzo[d]imidazol-2-yl)-4H-1,2,4-triazol-4-yl)phenoxy)acetamide], the pIC50 is no less than 7.00.

Consider `CN1CCC(n2cnnc2-c2nc3cc(C(F)(F)F)ccc3[nH]2)C1` (centres unmarked) [Compound 202, 2-(4-(1-methylpyrrolidin-3-yl)-4H-1,2,4-triazol-3-yl)-5-(trifluoromethyl)-1H-benzo[d]imidazole], for which the pIC50 is less than 6.00.

On to `Cn1cc(-c2ccccc2Cl)c(-c2nc3cc(C(F)(F)F)ccc3[nH]2)cc1=O` [Example 75], for which the pIC50 was 6.30 to 7.00.

For `FC(F)(F)c1ccc2[nH]c(-c3ccnnc3-c3cccc(Cl)c3Cl)nc2c1` [Compound 296, 2-(3-(2,3-dichlorophenyl)pyridazin-4-yl)-5-(trifluoromethyl)-1H-benzo[d]imidazole], the negative logarithm of the IC50 (pIC50) was 6.30 to 7.00.

Consider `Cc1cc(-c2cnccc2C(F)(F)F)c(-c2nc3cc(C(F)(F)F)ccc3[nH]2)nn1` [Compound 377, 2-(6-Methyl-4-(4-(trifluoromethyl)pyridin-3-yl)pyridazin-3-yl)-5-(trifluoromethyl)-1H-benzo[d]imidazole], for which the pIC50 is 6.30 to 7.00.

With `Cc1ccc2[nH]c(-n3c(-c4cccc(Cl)c4Cl)noc3=O)nc2c1` [Compound 29, 3-(2,3-dichlorophenyl)-4-(5-methyl-1H-benzo[d]imidazol-2-yl)-1,2,4-oxadiazol-5 (4H)-one], the pIC50 was less than 6.00.

Regarding `Fc1ccc(-n2cnnc2-c2nc3cc(C(F)(F)F)ccc3[nH]2)c(Cl)c1Cl` [Example 85], the pIC50 is no less than 7.00.

For `OC1CN(Cc2nnc(-c3nc4cc(C(F)(F)F)ccc4[nH]3)n2-c2cccc(Cl)c2Cl)C1` [Compound 144, 1-((4-(2,3-dichlorophenyl)-5-(5-(trifluoromethyl)-1H-benzo[d]imidazol-2-yl)-4H-1,2,4-triazol-3-yl)methyl)azetidin-3-ol], the pIC50 was no less than 7.00.

In the case of `CC(F)(F)c1cc(F)c2[nH]c(-c3nncn3-c3cnccc3C(F)(F)F)nc2c1` [Compound 468, 6-(1,1-difluoroethyl)-4-fluoro-2-(4-(4-(trifluoromethyl)pyridin-3-yl)-4H-1,2,4-triazol-3-yl)-1H-benzo[d]imidazole], the pIC50 is no less than 7.00.

Take `COc1cc(-c2ccccc2Cl)c(-c2nc3cc(C(F)(F)F)ccc3[nH]2)nn1` [Compound 405, 2-(4-(2-chlorophenyl)-6-methoxypyridazin-3-yl)-5-(trifluoromethyl)-1H-benzo[d]imidazole]: the pIC50 was 6.30 to 7.00.

As for `O=c1cc(-c2nc3cc(C(F)(F)F)ccc3[nH]2)c(-c2cccc(Cl)c2Cl)c[nH]1` [Example 40, 5-(2,3-dichlorophenyl)-4-[5-(trifluoromethyl)-1H-benzimidazol-2-yl]-1H-pyridin-2-one], the pIC50 was no less than 7.00.

Turning to `CC(c1cccnc1)c1cc(F)c2[nH]c(-c3nncn3-c3cnccc3C(F)(F)F)nc2c1` (centres unmarked) [Compound 444, 7-fluoro-5-(1-(pyridin-3-yl)ethyl)-2-(4-(4-(trifluoromethyl)pyridin-3-yl)-4H-1,2,4-triazol-3-yl)-1H-benzo[d]imidazole], the pIC50 was no less than 7.00.

As for `Oc1cc(F)c(Cl)c(-n2cnnc2-c2nc3cc(C(F)(F)F)cc(F)c3[nH]2)c1` [Compound 206, 4-chloro-3-fluoro-5-(3-(7-fluoro-5-(trifluoromethyl)-1H-benzo[d]imidazol-2-yl)-4H-1,2,4-triazol-4-yl)phenol], the pIC50 was no less than 7.00.

As to `N#CC1CC1c1ccc2[nH]c(-c3nncn3-c3cnccc3C(F)(F)F)nc2c1F` (centres unmarked) [Compound 320, 2-(4-fluoro-2-(4-(4-(trifluoromethyl)pyridin-3-yl)-4H-1,2,4-triazol-3-yl)-1H-benzo[d]imidazol-5-yl)cyclopropane-1-carbonitrile], the pIC50 was no less than 7.00.

On to `Cc1ccc2[nH]c(-c3c(CO)ccn3C3CCCC3)nc2c1` [Compound 17, (1-cyclopentyl-2-(5-methyl-1H-benzo[d]imidazol-2-yl)-1H-pyrrol-3-yl)methanol], for which the pIC50 is less than 6.00.

For `C[S+]([O-])c1c(Br)ccc2[nH]c(-c3nncn3-c3cccc(Cl)c3Cl)nc12` (centres unmarked) [Example 94, 5-bromo-2-(4-(2,3-dichlorophenyl)-4H-1,2,4-triazol-3-yl)-4-(methylsulfinyl)-1H-benzo[d]imidazole], the pIC50 is 6.00 to 6.30.

For the molecule `N#CC1(c2ccc3[nH]c(-c4nncn4-c4cccc(F)c4Cl)nc3c2)COC1` [Compound 180, 3-(2-(4-(2-chloro-3-fluorophenyl)-4H-1,2,4-triazol-3-yl)-1H-benzo[d]imidazol-5-yl)oxetane-3-carbonitrile], the pIC50 is no less than 7.00.

On to `OC1(c2ccc3[nH]c(-c4nncn4-c4cccc(Cl)c4Cl)nc3c2)CC1` [Example 133], for which the pIC50 was no less than 7.00.

With `OCCOc1cc(-c2nc3cc(C(F)(F)F)ccc3[nH]2)c(-c2cccc(Cl)c2Cl)cn1` [Example 65], the pIC50 was no less than 7.00.

In the case of `FC1(F)CN(c2c(Cl)ccc3[nH]c(-c4nncn4-c4cnccc4C(F)(F)F)nc23)C1` [Compound 358, 5-chloro-4-(3,3-difluoroazetidin-1-yl)-2-(4-(4-(trifluoromethyl)pyridin-3-yl)-4H-1,2,4-triazol-3-yl)-1H-benzo[d]imidazole], the pIC50 was 6.30 to 7.00.
